Results: paper PMC8347464, “Design, Synthesis, and In Vitro Antiproliferative Activity of Hydantoin and Purine Derivatives with the 4-Acetylphenylpiperazinylalkyl Moiety” (Materials, 2021)

Assays:
[1] = tested on: SW480 cells (human primary colon cancer); assay: MTT assay, SW480 cells; type: cell-based; conditions: for IC50: Homo sapiens, SW480, MTT, 72 h, mean ± SD; for effectiveness against SW480 cells (in words): based on IC50, MTT 72 h
Text: (§1) Primary and metastatic colon cancer (SW480, SW620), metastatic prostate cancer (PC3), and human immortal keratinocyte (HaCaT) cell lines and immortal microvascular endothelial cells (HMEC-1) were obtained from the American Type Culture Collection (ATCC, Rockville, USA) and cultured in recommended medium, namely, MEM (Biowest SAS, France) for the SW480 and SW620 cells, RPMI 1640 (Biowest SAS, Nuaillé, France) for PC3, DMEM (Biowest SAS, France) for HaCaT and MCDB 131 (PAN BioTech, Aidenbach, Germany) for HMEC-1. The SW480 and SW620 cell lines were initiated by A. Leibovitz et al. and derived from a human primary colon adenocarcinoma and lymph node metastasis of the same patient. respectively. PC3 cell cells were initiated from a bone metastasis of a human prostatic adenocarcinoma. HaCaT cells were obtained from adult human skin, while HMEC-1 cells were established from the dermis of a human neonate. Cells were cultured in recommended medium supplemented with 10% FBS (Biowest SAS, Nuaillé, France), penicillin (100 U/mL), streptomycin […] (Gibco Life Technologies, Waltham MA, USA) and incubated at 37 °C under 5% CO2. The culture medium of HMEC-1 cells was additionally supplemented with glutamine (1 mM) and microvascular growth supplement (5%) (MVGS; Gibco, USA). The cells were cultured until 80% confluency was reached, harvested by treatment with 0.25% trypsin 0.02% EDTA (Gibco Life Technologies, Waltham, MA, USA) and subsequently used for further experiments.
(§2) Cell viability was estimated using a conversion of 3-(4,5-dimethylthiazol-2-yl)-2,5-diphenyltetrazolium bromide salt (MTT) to insoluble formazan crystals by mitochondrial dehydrogenases, present in living cells. Cells were cultured in 96-well plates (l × 10^4 cells per well) and incubated for 24 h at 37 °C under 5% CO2. Next, the cells were treated with various concentrations of the tested compounds (ranging from 10 to 180 μM) and incubated for 72 h at 37 °C under 5% CO2. Untreated cells were used as the control. Next, the medium was removed, MTT solution (0.5 mg/mL) was added to each well, and the cells were incubated for 4 h at 37 °C under 5% CO2. After that, the obtained formazan crystals were dissolved in DMSO and isopropanol (1:1, v/v). The optical density of the dissolved crystals was measured at a wavelength of 570 nm using a UVM 340 reader (ASYS Hitech GmbH, Austria). Cell viability was presented as a percent of MTT reduced in treated cells versus control cells. The relative MTT level (%) was calculated as [A]/[B] × 100, where [A] is the absorbance of the test sample, and [B] is the absorbance of the control sample. The IC50 value was estimated using CompuSyn version 1.0.

[2] = tested on: SW620 cells (human metastatic colon cancer); assay: MTT assay, SW620 cells; type: cell-based; conditions: SW-620, 72 h, mean ± SD
Text: as §1, §2

[3] = tested on: PC3 cells (human metastatic prostate cancer); assay: MTT assay, PC3 cells; type: cell-based; conditions: for IC50: Homo sapiens, PC-3, MTT, 72 h, mean ± SD
Text: as §1, §2

[4] = tested on: HaCaT cells (human immortal keratinocyte); assay: MTT assay, HaCaT normal cells; type: cell-based; conditions: for IC50: Homo sapiens, HaCaT, MTT, 72 h, mean ± SD, normal cells
Text: as §1, §2

[5] = tested on: HMEC-1 cells (human immortal microvascular endothelial cells); assay: MTT assay, HMEC-1 normal cells; type: cell-based; conditions: 72 h, mean ± SD
Text: Primary and metastatic colon cancer (SW480, SW620), metastatic prostate cancer (PC3), and human immortal keratinocyte (HaCaT) cell lines and immortal microvascular endothelial cells (HMEC-1) were obtained from the American Type Culture Collection (ATCC, Rockville, USA) and cultured in recommended medium, namely, MEM (Biowest SAS, France) for the SW480 and SW620 cells, RPMI 1640 (Biowest SAS, Nuaillé, France) for PC3, DMEM (Biowest SAS, France) for HaCaT and MCDB 131 (PAN BioTech, Aidenbach, Germany) for HMEC-1. The SW480 and SW620 cell lines were initiated by A. Leibovitz et al. and derived from a human primary colon adenocarcinoma and lymph node metastasis of the same patient. respectively. PC3 cell cells were initiated from a bone metastasis of a human prostatic adenocarcinoma. […]
Cell viability was estimated using a conversion of 3-(4,5-dimethylthiazol-2-yl)-2,5-diphenyltetrazolium bromide salt (MTT) to insoluble formazan crystals by mitochondrial dehydrogenases, present in living cells. […] The optical density of the dissolved crystals was measured at a wavelength of 570 nm using a UVM 340 reader (ASYS Hitech GmbH, Austria). […] The relative MTT level (%) was calculated as [A]/[B] × 100, where [A] is the absorbance of the test sample, and [B] is the absorbance of the control sample. […]

human erythrocytes = assay: Determination of hemolytic activity; type: cell-based; conditions: 10^−6 or 10^−5 M, 37 °C, 30 min, PBS
Procedure: The hemolysis experiment was performed according to the previous report and was approved by the Bioethics Commission at the Lower Silesian Medical Chamber (1/PNHAB/2018). Freshly isolated human erythrocytes were incubated with compound 4 dissolved in DMSO (final concentration of 10^−6 or 10^−5 M) in PBS buffer at 37 °C for 30 min. The samples were then centrifuged and the absorbance of hemoglobin in the supernatants was measured at 540 nm. Additionally, negative (erythrocytes in PBS buffer), positive (erythrocytes in distilled water), and DMSO controls were also performed.

[6] = target: T1, E. coli TP (thymidine phosphorylase, TP/PD-ECGF) (Escherichia coli, UniProt P07650); assay: Thymidine phosphorylase inhibition; type: biochemical; conditions: 100 µM screening concentration
T1 construct: purchased Sigma T6632
T1 sequence (P07650 whole entry): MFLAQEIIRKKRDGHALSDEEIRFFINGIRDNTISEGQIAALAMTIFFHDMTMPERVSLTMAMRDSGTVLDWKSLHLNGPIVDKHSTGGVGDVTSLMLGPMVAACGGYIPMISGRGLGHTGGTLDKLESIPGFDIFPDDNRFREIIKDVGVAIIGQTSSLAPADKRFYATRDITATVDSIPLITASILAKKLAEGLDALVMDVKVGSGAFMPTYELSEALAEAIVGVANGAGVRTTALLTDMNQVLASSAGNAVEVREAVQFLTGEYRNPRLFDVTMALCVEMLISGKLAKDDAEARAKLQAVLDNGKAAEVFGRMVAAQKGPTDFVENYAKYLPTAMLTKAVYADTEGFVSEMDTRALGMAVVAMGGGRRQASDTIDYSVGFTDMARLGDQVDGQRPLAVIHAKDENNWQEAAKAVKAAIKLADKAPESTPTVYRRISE
Procedure: TP/PD-ECGF (E. coli TP (Sigma T6632)) activity was determined by measuring the absorbance at 290 nm spectrophotometrically, according to the manufacturer′s procedure [25]. Briefly the reaction mixture of 145 µL of potassium phosphate buffer (pH 7.4), 20 µL of 1.5 mM Thymidine 50 monophosphate solution as substrate, and 30 µL of an enzyme (E. coli TP, 0.05 and 0.002 U) was incubated with 5 µL of test materials for 10 min at 25 °C in a 96-well, flat bottom microplate (200 µL). Readings were taking by a microplate reader (SpectraMax Plus384, USA) at 290 nm. The readings were taken continuously after 10, 20, and 30 min by a microplate reader. All assays were performed in triplicate.

[7] = tested on: panel of 60 human cancer cell lines; parameters: method as in PMID 33387732; conditions: dose of 10 µM ref 14; cited from earlier work

| SMILES | IC50 [1] | IC50 [2] | IC50 [3] | melting point | effectiveness against SW480 cells (in words) [1] | IC50 [4] | growth-inhibitory potency against PC3 (in words) ([3]; MTT 72 h) | cytotoxic effect on HaCaT (in words) ([4]; 72-h exposure) | IC50 [5] | hemolytic activity against human red blood cells (human erythrocytes) | inhibition of thymidine phosphorylase activity [6] | growth inhibition (in words) [7] |
| --- | --- | --- | --- | --- | --- | --- | --- | --- | --- | --- | --- | --- |
| CC(=O)c1ccc(N2CCN(CCCCCN3C(=O)NC4(CCCc5ccccc54)C3=O)CC2)cc1 (racemic) [Compound 4, (R,S)-1-(5-(4-(4-Acetylphenyl)piperazin-1-yl)pentyl)-3′,4′-dihydro-2′H-spiro[imidazolidine-4,1′-naphthalene]-2,5-dione] | 16.8 ± 2.37 µM | 12.9 ± 3.16 µM | 20.6 ± 3.35 µM | 134.3 to 135.1 °C | effective | 36.8 ± 5.32 µM |  | no significant cytotoxic effect | 149 ± 10.6 µM | no hemolytic activity | 21.21% |  |
| CC(=O)c1ccc(N2CCN(CCCCn3ccn4c5c(=O)n(C)c(=O)n(C)c5nc34)CC2)cc1 [Compound 9, 8-(4-(4-(4-Acetylphenyl)piperazin-1-yl)butyl)-1,3-dimethyl-1H-imidazo[2,1-f]purine-2,4(3H,8H)-dione] | 153 ± 11.3 µM | 145 ± 3.76 µM | 101 ± 15.4 µM | 252 to 253 °C |  | 72.8 ± 6.08 µM |  |  |  |  |  |  |
| CC(=O)c1ccc(N2CCN(CCCCn3c(C)cn4c5c(=O)n(C)c(=O)n(C)c5nc34)CC2)cc1 [Compound 10, 8-(4-(4-(4-Acetylphenyl)piperazin-1-yl)butyl)-1,3,7-trimethyl-1H-imidazo[2,1-f]purine-2,4(3H,8H)-dione] | > 200 µM | 131 ± 12.6 µM | 86.1 ± 9.85 µM |  |  | 96.1 ± 5.32 µM |  |  |  |  |  |  |
| CC(=O)c1ccc(N2CCN(CCCCn3c(=O)ccn4c5c(=O)n(C)c(=O)n(C)c5nc34)CC2)cc1 [Compound 12, 9-(4-(4-(4-Acetylphenyl)piperazin-1-yl)butyl)-1,3-dimethylpyrimido[2,1-f]purine-2,4,8(1H,3H,9H)-trione] | > 200 µM | 169 ± 22.9 µM | 71.9 ± 9.85 µM |  |  | 83.9 ± 4.2 µM |  |  |  |  |  |  |
| CC(=O)c1ccc(N2CCN(CCCCn3c(=O)c(Br)cn4c5c(=O)n(C)c(=O)n(C)c5nc34)CC2)cc1 [Compound 14, 9-(4-(4-(4-Acetylphenyl)piperazin-1-yl)butyl)-7-bromo-1,3-dimethylpyrimido[2,1-f]purine-2,4,8(1H,3H,9H)-trione] | > 200 µM | > 200 µM | 91 ± 5.86 µM |  |  | 96.5 ± 4.93 µM |  |  |  |  |  |  |
| CC(=O)c1ccc(NC(=O)Cn2c(Br)nc3c2c(=O)n(C)c(=O)n3C)cc1 [Compound 22e, N-(4-acetylphenyl)-2-[8-bromo-1,3-dimethyl-2,6-dioxo-2,3-dihydro-1H-purin-7(6H)-yl]acetamide] |  |  |  |  |  |  |  |  |  |  |  | moderate growth inhibition |
| COc1cccc2c1C(=O)c1c(O)c3c(c(O)c1C2=O)C[C@@](O)(C(=O)CO)C[C@@H]3O[C@H]1C[C@H](N)[C@H](O)[C@H](C)O1 [Doxorubicin, reference compound] | 0.29 ± 0.08 µM |  | 0.59 ± 0.02 µM |  |  | 0.24 ± 0.03 µM |  |  |  |  |  |  |

Further lines, with some results ahead:

| IC50 [1] | IC50 [2] | IC50 [3] | melting point | SMILES | effectiveness against SW480 cells (in words) [1] | IC50 [4] | growth-inhibitory potency against PC3 (in words) ([3]; MTT 72 h) | cytotoxic effect on HaCaT (in words) ([4]; 72-h exposure) | IC50 [5] | hemolytic activity against human red blood cells (human erythrocytes) | inhibition of thymidine phosphorylase activity [6] | growth inhibition (in words) [7] |
| --- | --- | --- | --- | --- | --- | --- | --- | --- | --- | --- | --- | --- |
| 54.2 ± 3.89 µM | 67 ± 5.24 µM | 57.6 ± 5.86 µM | 180.2 to 181.3 °C | CC(=O)c1ccc(N2CCN(CCCCN3C(=O)NC4(CCc5ccccc54)C3=O)CC2)cc1 (racemic) [Compound 1, (R,S)-1-(4-(4-(4-Acetylphenyl)piperazin-1-yl)butyl)-2′,3′-dihydrospiro[imidazolidine-4,1′-indene]-2,5-dione] | effective | 41.8 ± 7.62 µM |  |  |  |  |  |  |
| 40.7 ± 3.54 µM | 43.1 ± 4.41 µM | 36.2 ± 4.98 µM | 155.3 to 156.2 °C | CC(=O)c1ccc(N2CCN(CCCCCN3C(=O)NC4(CCc5ccccc54)C3=O)CC2)cc1 (racemic) [Compound 2, (R,S)-1-(5-(4-(4-Acetylphenyl)piperazin-1-yl)pentyl)-2′,3′-dihydrospiro[imidazolidine-4,1′-indene]-2,5-dione] | effective | 22.6 ± 2.69 µM | moderate growth-inhibitory potency |  |  |  |  |  |
| 129 ± 10.8 µM | 104 ± 7.36 µM | 64.5 ± 6.76 µM | 168.8 to 170.2 °C | CC(=O)c1ccc(N2CCN(CCCCN3C(=O)NC4(CCCc5ccccc54)C3=O)CC2)cc1 (racemic) [Compound 3, (R,S)-1-(4-(4-(4-Acetylphenyl)piperazin-1-yl)butyl)-3′,4′-dihydro-2′H-spiro[imidazolidine-4,1′-naphthalene]-2,5-dione] |  | 114 ± 8.93 µM |  |  |  |  |  |  |
| 102 ± 2.37 µM | > 200 µM | > 200 µM | 213.8 to 214.9 °C | CC(=O)c1ccc(N2CCN(CCCCN3C(=O)NC4(Cc5ccccc5C4)C3=O)CC2)cc1 [Compound 5, (R,S)-1-{4-[4-(4-Acetylophenyl)piperazyn-1-yl]butyl}-1′,3′-dihydro-2H,5H-spiro[imidazolidine-4,2′-indene]-2,5-dione] |  | > 200 µM |  |  |  |  |  |  |
| 53.7 ± 7.78 µM | 78.3 ± 4.76 µM | 95.1 ± 8.4 µM | 157.4 to 157.7 °C | CC(=O)c1ccc(N2CCN(CCCCCN3C(=O)NC4(Cc5ccccc5C4)C3=O)CC2)cc1 [Compound 6, (R,S)-1-{5-[4-(4-Acetylophenyl)piperazyn-1-yl]pentyl}-1′,3′-dihydro-2H,5H-spiro[imidazolidine-4,2′-indene]-2,5-dione] | effective | 159 ± 14.1 µM |  |  |  |  |  |  |
| > 200 µM | 97.7 ± 10.7 µM | 60.28 ± 0.4 µM |  | CC(=O)c1ccc(N2CCN(CCCCCn3ccn4c5c(=O)n(C)c(=O)n(C)c5nc34)CC2)cc1 [Compound 11, 8-(5-(4-(4-Acetylphenyl)piperazin-1-yl)pentyl)-1,3-dimethyl-1H-imidazo[2,1-f]purine-2,4(3H,8H)-dione] |  | 58.6 ± 4.91 µM |  |  |  |  |  |  |
| > 200 µM | > 200 µM | 94.2 ± 8.36 µM |  | CC(=O)c1ccc(N2CCN(CCCCCn3c(=O)ccn4c5c(=O)n(C)c(=O)n(C)c5nc34)CC2)cc1 [Compound 13, 9-(5-(4-(4-Acetylphenyl)piperazin-1-yl)pentyl)-1,3-dimethylpyrimido[2,1-f]purine-2,4,8(1H,3H,9H)-trione] |  | 126 ± 14.3 µM |  |  |  |  |  |  |
